Reference: US5831026A, “Process for purifying factor VIII” (Pharmacia & Upjohn AB, priority 1994, dated 1998)

Tests used:
[1] = test system: factor VIII; assay: Activity of factor VIII after addition of complexing agent to eluted solution from SP Sepharose FF, COATEST chromogenic assay; type: biochemical; conditions: for Factor VIII activity (IU/ml) / Factor VIII activity (%): Example 8; for Factor VIII activity (%): 0 h without additive = 100
Method: Tests without EDTA present were carried out for comparison.
A conditioned medium (containing human serum albumin) from a different harvest than the previous Examples, was clarified and buffered with NH4 Ac. […] After elution, various amounts of EDTA were added to the resulting solution. Tests without EDTA present were carried out for comparison. The procoagulant activity of factor VIII was determined after storage at ambient temperature for up to 246 hours, in accordance to the procedure described in Example 5.
A conditioned medium (containing human serum albumin) from a different harvest than the previous Examples, was clarified and buffered with NH4 Ac. […] After elution, various amounts of EDTA were added to the resulting solution. Tests without EDTA present were carried out for comparison. The procoagulant activity of factor VIII was determined after storage at ambient temperature for up to 28 hours, in accordance to the procedure described in Example 5.
A conditioned medium (containing human serum albumin) from a different harvest than the previous Examples, was clarified and buffered with NH4 Ac. The resulting solution was loaded onto a column containing SP SEPHAROSE® FF. This cation-exchange chromatography step was performed at 10° C. […] After elution, EDTA or 1,10-Phenanthroline were added to the resulting solution.

[2] = 3 mM EDTA in washing and elution liquid; harvest solution no. 2
Method: Conditioned mediums (containing human serum albumin) from two consecutive harvests, were clarified and buffered with NH4 Ac. Each resulting solution, with a pH of 6.8, was loaded onto a column containing SP SEPHAROSE® FF sold by Pharmacia AB of Uppsala, Sweden. This cation-exchange chromatography step was performed at about 8° C. After washing, factor VIII was eluted with a salt buffer containing 0.8M NaCl and 0.1M NH4 Ac. The washing liquid as well as the elution liquid contained 3 mM EDTA in the tests with harvest solution no. 2. Tests without EDTA present was carried out for comparison (harvest solution no. 1). […] The concentration of unbound Ca^2+ -ions was determined by an ion-selective electrode.

[3] = 3 mM EDTA, incubation 4.5 h ambient
[4] = 3 mM EDTA, incubation 7.5 h ambient
[5] = 3 mM EDTA, incubation 24 h ambient

With `O=C(O)CN(CCN(CC(=O)O)CC(=O)O)CC(=O)O` [EDTA, ethylenediamine tetraacetic acid] as the molecule, how does the “Activity of factor VIII in % of the initial value” ([1]; Example 6 (0.4M NaCl eluate), 0.01 mM EDTA, storage 0 h ambient) read?
Its value is 100%.

What about the “Activity of factor VIII in % of the initial value” ([1]; Example 6 (0.4M NaCl eluate), 0.01 mM EDTA, storage 2.5 h ambient) of the same molecule?
Its value is 77%.

What about the “Activity of factor VIII in % of the initial value” ([1]; Example 6 (0.4M NaCl eluate), 0.01 mM EDTA, storage 5 h ambient) of the same molecule?
Its value is 59%.

And the “Activity of factor VIII in % of the initial value” ([1]; Example 6 (0.4M NaCl eluate), 0.01 mM EDTA, storage 10 h ambient)?
Its value is 32%.

What about the “Activity of factor VIII in % of the initial value” ([1]; Example 6 (0.4M NaCl eluate), 0.01 mM EDTA, storage 24 h ambient) of the same molecule?
Its value is 1.9%.

And the “Activity of factor VIII in % of the initial value” ([1]; Example 6 (0.4M NaCl eluate), 0.03 mM EDTA, storage 0 h ambient)?
Its value is 100%.

What about the “Activity of factor VIII in % of the initial value” ([1]; Example 6 (0.4M NaCl eluate), 0.03 mM EDTA, storage 2.5 h ambient) of the same molecule?
Its value is 76%.

And the “Activity of factor VIII in % of the initial value” ([1]; Example 6 (0.4M NaCl eluate), 0.03 mM EDTA, storage 5 h ambient)?
Its value is 59%.

What about the “Activity of factor VIII in % of the initial value” ([1]; Example 6 (0.4M NaCl eluate), 0.03 mM EDTA, storage 10 h ambient) of the same molecule?
The value was 33%.

And the “Activity of factor VIII in % of the initial value” ([1]; Example 6 (0.4M NaCl eluate), 0.03 mM EDTA, storage 24 h ambient)?
Its value is 2.1%.

And the “Activity of factor VIII in % of the initial value” ([1]; Example 6 (0.4M NaCl eluate), 0.1 mM EDTA, storage 0 h ambient)?
Its value is 100%.

What about the “Activity of factor VIII in % of the initial value” ([1]; Example 6 (0.4M NaCl eluate), 0.1 mM EDTA, storage 2.5 h ambient) of the same molecule?
Its value is 82%.

And the “Activity of factor VIII in % of the initial value” ([1]; Example 6 (0.4M NaCl eluate), 0.1 mM EDTA, storage 5 h ambient)?
The value was 65%.

What about the “Activity of factor VIII in % of the initial value” ([1]; Example 6 (0.4M NaCl eluate), 0.1 mM EDTA, storage 10 h ambient) of the same molecule?
The value was 43%.

And the “Activity of factor VIII in % of the initial value” ([1]; Example 6 (0.4M NaCl eluate), 0.1 mM EDTA, storage 24 h ambient)?
The value was 4.6%.

What about the “Activity of factor VIII in % of the initial value” ([1]; Example 6 (0.4M NaCl eluate), 0.3 mM EDTA, storage 0 h ambient) of the same molecule?
The value was 100%.

What about the “Activity of factor VIII in % of the initial value” ([1]; Example 6 (0.4M NaCl eluate), 0.3 mM EDTA, storage 2.5 h ambient) of the same molecule?
The value was 79%.

And the “Activity of factor VIII in % of the initial value” ([1]; Example 6 (0.4M NaCl eluate), 0.3 mM EDTA, storage 5 h ambient)?
The value was 71%.

And the “Activity of factor VIII in % of the initial value” ([1]; Example 6 (0.4M NaCl eluate), 0.3 mM EDTA, storage 10 h ambient)?
The value was 55%.

And the “Activity of factor VIII in % of the initial value” ([1]; Example 6 (0.4M NaCl eluate), 0.3 mM EDTA, storage 24 h ambient)?
The value was 11%.

And the “Activity of factor VIII in % of the initial value” ([1]; Example 6 (0.4M NaCl eluate), 1.0 mM EDTA, storage 0 h ambient)?
The value was 100%.

What about the “Activity of factor VIII in % of the initial value” ([1]; Example 6 (0.4M NaCl eluate), 1.0 mM EDTA, storage 2.5 h ambient) of the same molecule?
Its value is 90%.

And the “Activity of factor VIII in % of the initial value” ([1]; Example 6 (0.4M NaCl eluate), 1.0 mM EDTA, storage 5 h ambient)?
Its value is 97%.

And the “Activity of factor VIII in % of the initial value” ([1]; Example 6 (0.4M NaCl eluate), 1.0 mM EDTA, storage 10 h ambient)?
The value was 97%.

And the “Activity of factor VIII in % of the initial value” ([1]; Example 6 (0.4M NaCl eluate), 1.0 mM EDTA, storage 24 h ambient)?
The value was 75%.

What about the “Activity of factor VIII in % of the initial value” ([1]; Example 6 (0.4M NaCl eluate), 1.0 mM EDTA, storage 48 h ambient) of the same molecule?
The value was 54%.

And the “Activity of factor VIII in % of the initial value” ([1]; Example 6 (0.4M NaCl eluate), 3.0 mM EDTA, storage 0 h ambient)?
Its value is 100%.

And the “Activity of factor VIII in % of the initial value” ([1]; Example 6 (0.4M NaCl eluate), 3.0 mM EDTA, storage 2.5 h ambient)?
Its value is 92%.

What about the “Activity of factor VIII in % of the initial value” ([1]; Example 6 (0.4M NaCl eluate), 3.0 mM EDTA, storage 5 h ambient) of the same molecule?
The value was 102%.

What about the “Activity of factor VIII in % of the initial value” ([1]; Example 6 (0.4M NaCl eluate), 3.0 mM EDTA, storage 10 h ambient) of the same molecule?
Its value is 104%.

And the “Activity of factor VIII in % of the initial value” ([1]; Example 6 (0.4M NaCl eluate), 3.0 mM EDTA, storage 24 h ambient)?
Its value is 100%.

What about the “Activity of factor VIII in % of the initial value” ([1]; Example 6 (0.4M NaCl eluate), 3.0 mM EDTA, storage 48 h ambient) of the same molecule?
The value was 96%.

And the “Activity of factor VIII in % of the initial value” ([1]; Example 6 (0.4M NaCl eluate), 3.0 mM EDTA, storage 72 h ambient)?
Its value is 80%.

And the “Activity of factor VIII in % of the initial value” ([1]; Example 6 (0.4M NaCl eluate), 3.0 mM EDTA, storage 100 h ambient)?
The value was 91%.

And the “Activity of factor VIII in % of the initial value” ([1]; Example 6 (0.4M NaCl eluate), 3.0 mM EDTA, storage 246 h ambient)?
The value was 72%.

What about the “Activity of factor VIII in % of the initial value” ([1]; Example 7 (0.8M NaCl eluate), 1 mM EDTA, storage 0 h ambient) of the same molecule?
The value was 100%.

What about the “Activity of factor VIII in % of the initial value” ([1]; Example 7 (0.8M NaCl eluate), 1 mM EDTA, storage 5 h ambient) of the same molecule?
Its value is 119%.

What about the “Activity of factor VIII in % of the initial value” ([1]; Example 7 (0.8M NaCl eluate), 1 mM EDTA, storage 28 h ambient) of the same molecule?
Its value is 64%.

And the “Activity of factor VIII in % of the initial value” ([1]; Example 7 (0.8M NaCl eluate), 2 mM EDTA, storage 0 h ambient)?
The value was 100%.

And the “Activity of factor VIII in % of the initial value” ([1]; Example 7 (0.8M NaCl eluate), 2 mM EDTA, storage 5 h ambient)?
Its value is 120%.

And the “Activity of factor VIII in % of the initial value” ([1]; Example 7 (0.8M NaCl eluate), 2 mM EDTA, storage 28 h ambient)?
The value was 100%.

And the “Activity of factor VIII in % of the initial value” ([1]; Example 7 (0.8M NaCl eluate), 3 mM EDTA, storage 0 h ambient)?
The value was 100%.

And the “Activity of factor VIII in % of the initial value” ([1]; Example 7 (0.8M NaCl eluate), 3 mM EDTA, storage 5 h ambient)?
The value was 120%.

What about the “Activity of factor VIII in % of the initial value” ([1]; Example 7 (0.8M NaCl eluate), 3 mM EDTA, storage 28 h ambient) of the same molecule?
The value was 90%.

And the “Activity of factor VIII in % of the initial value” ([1]; Example 7 (0.8M NaCl eluate), 4 mM EDTA, storage 0 h ambient)?
Its value is 100%.

And the “Activity of factor VIII in % of the initial value” ([1]; Example 7 (0.8M NaCl eluate), 4 mM EDTA, storage 5 h ambient)?
The value was 109%.

What about the “Activity of factor VIII in % of the initial value” ([1]; Example 7 (0.8M NaCl eluate), 4 mM EDTA, storage 28 h ambient) of the same molecule?
Its value is 103%.

And the “Activity of factor VIII in % of the initial value” ([1]; Example 7 (0.8M NaCl eluate), 5 mM EDTA, storage 0 h ambient)?
Its value is 100%.

What about the “Activity of factor VIII in % of the initial value” ([1]; Example 7 (0.8M NaCl eluate), 5 mM EDTA, storage 5 h ambient) of the same molecule?
The value was 116%.

And the “Activity of factor VIII in % of the initial value” ([1]; Example 7 (0.8M NaCl eluate), 5 mM EDTA, storage 28 h ambient)?
The value was 91%.

What about the “Factor VIII activity (IU/ml)” value [1, 3] of the same molecule?
The value was 813 IU/ml.

What about the “Factor VIII activity (%)” value [1, 3] of the same molecule?
Its value is 92%.

And the “Factor VIII activity (IU/ml)” value [1, 4]?
Its value is 862 IU/ml.

And the “Factor VIII activity (%)” value [1, 4]?
Its value is 97%.

And the “Factor VIII activity (IU/ml)” value [1, 5]?
Its value is 763 IU/ml.

And the “Factor VIII activity (%)” value [1, 5]?
The value was 86%.

What about the “Unbound Ca^2+ ions” value [2] of the same molecule?
Its value is 25 mM.
